Results as given in patent US4616038A, “Combination of thienamycin-type antibiotics with dipeptidase inhibitors” (Merck & Co., Inc., priority 1985, dated 1986).
Like-named read-outs stand apart in the source and are kept apart here.

Target: T1, renal dipeptidase (E.C.3.4.13.11) (Sus scrofa, UniProt P22412)
T1 construct: solubilized preparation of dipeptidase isolated from hog kidneys; from tissue; host or cells: hog kidney
T1 sequence (P22412 17-409): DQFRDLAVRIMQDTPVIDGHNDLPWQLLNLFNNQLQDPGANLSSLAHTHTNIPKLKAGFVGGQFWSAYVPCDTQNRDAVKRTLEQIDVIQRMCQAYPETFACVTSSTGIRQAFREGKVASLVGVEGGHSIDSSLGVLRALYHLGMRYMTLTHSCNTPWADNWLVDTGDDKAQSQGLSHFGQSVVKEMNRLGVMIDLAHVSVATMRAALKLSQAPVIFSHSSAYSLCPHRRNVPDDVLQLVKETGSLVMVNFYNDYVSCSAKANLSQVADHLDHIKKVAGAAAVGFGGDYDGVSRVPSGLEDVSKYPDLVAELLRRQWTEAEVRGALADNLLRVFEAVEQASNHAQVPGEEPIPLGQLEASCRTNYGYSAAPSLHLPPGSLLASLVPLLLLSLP
Test: Inhibition of glycyldehydrophenylalanine (GDP) hydrolysis by renal dipeptidase in vitro
Type: biochemical, pig (hog)
Method: This measured the ability of compounds to inhibit hydrolysis of glycyldehydrophenylalanine (GDP) by a solubilized preparation of dipeptidase isolated from hog kidneys The procedure is as follows to a 1 ml. system containing 50 mM "MOPS" (3-(N-morpholino)propanesulfonic acid) buffer, pH 7.1, is added 5 μg of lyophilized enzyme, and the test compound at a final concentration of 0.1 mM. After a five minute incubation at 37° C., GDP is added to a final concentration of 0.05 mM. Incubation is continued for 10 minutes, at 37° C. and hydrolysis of GDP is measured by the change in optical density with time at 275 nm. Inhibition of the enzyme is gauged by comparison to a standard run containing no inhibitor and is expressed as the inhibitor binding constant, Ki.
A 1 ml. system of 50 mM "MOPS" buffer, pH 7.1, is used. To this is added 5 μg of the pig renal enzyme and an amount of the test compound to bring its final concentration to 0.1 mM. After a five minute incubation at 37° C., an amount of GDP is added to bring its final concentration to 0.05 mM. The system is again incubated for 10 minutes, at 37° C. Hydrolysis of GDP is measured by its change in optical density with time at 275 nm. Inhibition of the enzyme is gauged by comparison to a standard run containing no inhibitor and is presented as percent inhibition.

[1] = concentration producing 50% inhibition, substrate GDP 0.05 mM, pH 7.1, 37° C., read-out: Ki

Row | SMILES | Ki [1] [nM] | also measured
1 | C/C=C(\NC(=O)C1CC1C)C(=O)O (stereo not drawn) [Compound 3] | 1700 | –
2 | CC/C=C(\NC(=O)CC(C)C)C(=O)O [Compound 4] | 3200 | –
3 | C/C=C(\NC(=O)CC(C)CC(C)(C)C)C(=O)O (stereo not drawn) [Compound 5] | 4400 | –
4 | C/C=C(\NC(=O)C1C(C)C1C)C(=O)O (stereo not drawn) [Compound 6] | 4600 | –
5 | C/C=C(\NC(=O)C1CCC1)C(=O)O [Compound 8] | 6200 | –
6 | C/C=C(\NC(=O)CC1CCC1)C(=O)O [Compound 9] | 6600 | –
7 | C/C=C(\NC(=O)CC(C)CC)C(=O)O (stereo not drawn) [Compound 11] | 10000 | –
8 | C[N+](C)(C)CCCCC/C=C(\NC(=O)C1CC1(Cl)Cl)C(=O)[O-] (stereo not drawn) [Compound 13] | 180 | –
9 | CC1(C)CC1C(=O)N/C(=C\CCCCC[N+](C)(C)C)C(=O)[O-] (stereo not drawn) [Compound 14] | 1110 | –
10 | CC(=N)NCCCCC/C=C(\NC(=O)C1CC1(C)C)C(=O)O (stereo not drawn) [Compound 15] | 720 | –
11 | CC1(C)CC1C(=O)N/C(=C\CCCCSC[C@H](N)C(=O)O)C(=O)O (stereo partly drawn) [Compound 17] | – | Ki: 210 nM
12 | C/C=C(\NC(=O)CCCCCCC)C(=O)O [Compound 19, Z-2-octanamido-2-butenoic acid] | 26000 | –
13 | C/C=C(\NC(=O)CCC)C(=O)O [Compound 20, Z-2-butyramido-2-butenoic acid] | 30000 | –
14 | C/C=C(\NC(=O)CCCC1CCCCC1)C(=O)O [Compound 21] | 30000 | –
15 | C/C=C(\NC(=O)CC1CC1)C(=O)O [Compound 22] | 22000 | –
16 | C/C=C(\NC(=O)CCCC)C(=O)O [Compound 23, Z-2-valeramido-2-butenoic acid] | 32000 | –
17 | C/C=C(\NC(=O)C1CCCC1)C(=O)O [Compound 24] | 30000 | –
18 | O=C(O)CC/C=C(\NC(=O)C1CC1)C(=O)O [Compound 33] | 5000 | –
19 | C/C=C(\NC(=O)CC(C)CCOC)C(=O)O (stereo not drawn) [Compound 34] | 9000 | –
20 | C/C=C(\NC(=O)CCCCCBr)C(=O)O [Compound 35] | 19000 | –
21 | C/C=C(\NC(=O)CCCc1ccccc1)C(=O)O [Compound 37] | 11000 | –

Row | SMILES | Ki [1] [nM] | also measured
22 | C/C=C(\NC(=O)C1CC1C(C)(C)C)C(=O)O (stereo not drawn) [Compound 38] | 6500 | –
23 | CCCCC/C=C(\NC(=O)CC(C)C)C(=O)O [Compound 39, Z--isovaleramido-2-octenoic acid] | 2600 | –
24 | C/C=C(\NC(=O)C1CC1(C)CC)C(=O)O (stereo not drawn) [Compound 40] | 450 | –
25 | CC(C)/C=C(\NC(=O)C1CC1(C)C)C(=O)O (stereo not drawn) [Compound 41] | 540 | inhibition at 100 µM (10^-4 M inhibitor, 0.05 mM GDP, pH 7.1, 37° C.): 98%
26 | C/C=C(\NC(=O)C1CC1(CC)CC)C(=O)O (stereo not drawn) [Compound 42] | 860 | –
27 | C/C=C(\NC(=O)C1CC1CC)C(=O)O (stereo not drawn) [Compound 43] | 1600 | –
28 | C/C=C(\NC(=O)C1CC1(C)C(C)C)C(=O)O (stereo not drawn) [Compound 44] | 3000 | –
29 | CC/C=C(\NC(=O)C1CC1(C)C)C(=O)O (stereo not drawn) [Compound 45] | 180 | –
30 | CC1(C)CC1C(=O)N/C(=C\c1ccccc1)C(=O)O (stereo not drawn) [Compound 46] | 620 | –
31 | CCC/C=C(\NC(=O)C1CC1(C)C)C(=O)O (stereo not drawn) [Compound 47] | 110 | –
32 | CC(C)C/C=C(\NC(=O)C1CC1(C)C)C(=O)O (stereo not drawn) [Compound 48] | 230 | –
33 | CCCC/C=C(\NC(=O)C1CC1(C)C)C(=O)O (stereo not drawn) [Compound 49] | 110 | –
34 | CCCCC/C=C(\NC(=O)C1CC1(C)C)C(=O)O (stereo not drawn) [Compound 50] | 170 | –
35 | CC1(C)CC1C(=O)N/C(=C\CC1CCCCC1)C(=O)O (stereo not drawn) [Compound 52] | 150 | –
36 | CC1(C)CC1C(=O)N/C(=C\CCc1ccccc1)C(=O)O (stereo not drawn) [Compound 53] | 330 | –
37 | CSCC/C=C(\NC(=O)C1CC1(C)C)C(=O)O (stereo not drawn) [Compound 54] | 120 | –
38 | CC1(C)CC1C(=O)N/C(=C\CCS(C)(=O)=O)C(=O)O (stereo not drawn) [Compound 55] | 500 | –
39 | CCCCCCCCCC/C=C(\NC(=O)C1CC1(C)C)C(=O)O (stereo not drawn) [Compound 58] | 140 | –
40 | COCCC/C=C(\NC(=O)C1CC1(C)C)C(=O)O (stereo not drawn) [Compound 60] | 280 | –
41 | COCC/C=C(\NC(=O)C1CC1(C)C)C(=O)O (stereo not drawn) [Compound 61] | 320 | –
